Data: patent publication US20060030569A1, “Diarylmethyl piperazine derivatives, preparations thereof and uses thereof” (AstraZeneca AB, priority 2004, published 2006)
Read-outs that look alike come from different tables or passages of the source.

Key:
cloned human μ receptors = target: T1, cloned human μ receptors (Homo sapiens, UniProt P35372); experiment: Binding assay, displacement of 125I-FK33824 (IC50hm)
T1 construct: expressed in transfected cells; host or cells: human 293S (HEK 293S) cells
T1 sequence (P35372 whole entry): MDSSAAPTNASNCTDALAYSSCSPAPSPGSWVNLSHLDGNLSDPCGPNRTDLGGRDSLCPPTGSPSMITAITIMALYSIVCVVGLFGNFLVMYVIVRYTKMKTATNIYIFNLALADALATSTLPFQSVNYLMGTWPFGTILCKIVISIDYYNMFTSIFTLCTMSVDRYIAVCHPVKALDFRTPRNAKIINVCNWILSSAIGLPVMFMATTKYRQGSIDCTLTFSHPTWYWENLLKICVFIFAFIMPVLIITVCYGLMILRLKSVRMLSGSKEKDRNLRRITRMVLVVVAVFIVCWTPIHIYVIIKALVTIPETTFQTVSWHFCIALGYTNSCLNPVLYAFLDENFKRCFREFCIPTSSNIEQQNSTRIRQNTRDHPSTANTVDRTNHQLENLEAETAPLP

human δ receptors = target: T2, human δ receptors (Homo sapiens, UniProt P41143); experiment: Human δ receptor functional assay, GTP[γ]35S binding; type: biochemical; settings: for Emax: in relation to SNC80
T2 construct: expressed in transfected cells
T2 sequence (P41143 whole entry): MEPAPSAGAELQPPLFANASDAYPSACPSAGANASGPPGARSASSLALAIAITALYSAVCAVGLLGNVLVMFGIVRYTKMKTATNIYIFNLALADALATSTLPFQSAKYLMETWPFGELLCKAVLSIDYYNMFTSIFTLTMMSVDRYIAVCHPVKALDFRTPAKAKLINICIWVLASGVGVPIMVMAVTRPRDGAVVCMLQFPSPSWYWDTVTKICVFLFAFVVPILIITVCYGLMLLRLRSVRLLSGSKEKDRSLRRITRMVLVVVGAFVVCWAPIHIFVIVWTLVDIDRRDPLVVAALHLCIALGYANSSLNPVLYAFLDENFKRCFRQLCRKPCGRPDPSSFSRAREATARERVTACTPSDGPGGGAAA
Protocol: (§1) The agonist activity of the compounds is measured by determining the degree to which the compounds receptor complex activates the binding of GTP to G-proteins to which the receptors are coupled. In the GTP binding assay, GTP[γ]^35S is combined with test compounds and membranes from BEK-293S cells expressing the cloned human opioid receptors or from homogenised rat or mouse brain. Agonists stimulate GTP[γ]^35S binding in these membranes. The EC50 and Emax values of compounds are determined from dose-response curves. Right shifts of the dose response curve by the delta antagonist naltrindole are performed to verify that agonist activity is mediated through delta receptors. For human δ receptor functional assays, EC50 (low) is measured when the human δ receptors used in the assay were expressed at lower levels in comparison with those used in determining EC50 (high). The Emax values were determined in relation to the standard δ agonist SNC80, i.e., higher than 100% is a compound that has better efficacy than SNC80.
(§2) Rat brain membranes are thawed at 37° C., passed 3 times through a 25-gauge blunt-end needle and diluted in the GTPγS binding (50 mM Hepes, 20 mM NaOH, 100 mM NaCl, 1 mM EDTA, 5 mM MgCl2, pH 7.4, Add fresh: 1 mM DTT, 0.1% BSA). 120 μM GDP final is added membranes dilutions. […] The basal and maximal stimulated binding are determined in absence and presence of 3 μM SNC80. The assay performed on HEK 293S cells stably expressing cloned Delta receptors is done in a slightly different buffer (50 mM Hepes, 20 mM NaOH, 200 mM NaCl, 1 mM EDTA, 5 mM MgCl2, pH 7.4, Add fresh: 0.5% BSA, no DTT) and with a 3 μM final conc. of GDP.

[1] = target: T3, δ receptors in rat brain membranes (Rattus norvegicus, UniProt P33533); experiment: Rat brain functional assay, GTPγ35S binding; type: biochemical; settings: for Emax: in relation to SNC80, read-out: EC50rb Emax
T3 construct: membranes from BEK-293S cells expressing the cloned human opioid receptors or from homogenised rat or mouse brain; from tissue; host or cells: rat brain
T3 sequence (P33533 whole entry): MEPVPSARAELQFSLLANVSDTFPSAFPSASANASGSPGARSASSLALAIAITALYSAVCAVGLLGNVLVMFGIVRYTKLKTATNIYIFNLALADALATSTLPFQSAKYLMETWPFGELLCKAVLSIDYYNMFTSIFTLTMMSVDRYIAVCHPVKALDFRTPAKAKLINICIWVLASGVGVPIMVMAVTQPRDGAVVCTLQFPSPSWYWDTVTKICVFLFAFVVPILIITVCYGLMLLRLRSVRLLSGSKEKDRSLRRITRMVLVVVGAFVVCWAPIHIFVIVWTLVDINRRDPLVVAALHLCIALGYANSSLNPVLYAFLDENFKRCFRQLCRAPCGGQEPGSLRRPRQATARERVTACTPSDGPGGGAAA
Protocol: Rat brains are weighed and rinsed in ice-cold PBS (containing 2.5 mM EDTA, pH 7.4). The brains are homogenized with a polytron for 30 sec (rat) in ice-cold lysis buffer (50 mM Tris, pH 7.0, 2.5 mM EDTA, with phenylmethylsulfonyl fluoride added just prior use to […] from a 0.5 M stock in DMSO:ethanol).
as §1, with “(high).” for “(high). The Emax values were determined in relation to the standard δ agonist SNC80, i.e., higher than 100% is a compound that has better efficacy than SNC80.”
as §2

cloned human δ receptors = target: T4, cloned human δ receptors (Homo sapiens, UniProt P41143); experiment: Binding assay, displacement of 125I-Deltorphin II (IC50hd)
T4 construct: expressed in transfected cells
T4 sequence (P41143 whole entry): as the sequence (P41143 whole entry) above

cloned human κ receptors = target: T5, cloned human κ receptors (Homo sapiens, UniProt P41145); experiment: Binding assay, displacement of 125I-DPDYN (IC50hk)
T5 construct: expressed in transfected cells; host or cells: human 293S (HEK 293S) cells
T5 sequence (P41145 whole entry): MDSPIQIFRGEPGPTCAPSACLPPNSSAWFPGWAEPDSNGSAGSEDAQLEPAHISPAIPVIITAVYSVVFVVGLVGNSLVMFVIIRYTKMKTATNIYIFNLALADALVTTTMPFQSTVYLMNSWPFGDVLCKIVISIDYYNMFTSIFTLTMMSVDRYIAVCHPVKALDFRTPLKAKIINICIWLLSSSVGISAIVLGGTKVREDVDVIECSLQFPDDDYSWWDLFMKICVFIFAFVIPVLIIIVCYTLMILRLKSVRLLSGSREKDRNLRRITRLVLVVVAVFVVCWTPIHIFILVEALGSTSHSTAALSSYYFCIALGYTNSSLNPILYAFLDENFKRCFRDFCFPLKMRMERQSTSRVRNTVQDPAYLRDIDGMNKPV

[2] = human δ receptors expressed at higher levels, read-out: EC50h (high) Emax
[3] = human δ receptors expressed at higher levels, read-out: EC50h (high)
[4] = human δ receptors expressed at lower levels, read-out: EC50h (low) Emax
[5] = human δ receptor, 293S cell membranes, read-out: IC50hd
[6] = EC50h (low), human δ receptors expressed at lower levels

Compound | IC50 (cloned human μ receptors) [nM] | Emax (human δ receptors; [2]) [%] | EC50 (human δ receptors; [3]) [nM] | Emax (human δ receptors; [4]) [%] | EC50 (human δ receptors; human δ receptors expressed at lower levels, read-out: EC50h (low)) [nM] | EC50 [1] [nM] | Emax [1] [%] | IC50 (cloned human δ receptors; [5]) [nM] | IC50 (cloned human κ receptors) [µM] | EC50 (human δ receptors; [6]) [nM] | IC50 (cloned human δ receptors) [nM]
CCN(CC)C(=O)c1ccc([C@H](c2cccc(N)c2)N2CCN(Cc3ccc(F)cc3)CC2)cc1 | 715 | 104 | 4.18 | 95.3 | 20.6 | 22.8 | 130 | 0.587 | 5.52 |  | 
CCN(CC)C(=O)c1ccc([C@@H](c2cccc(N)c2)N2CCN(Cc3ccc(F)cc3)CC2)cc1 | 3320 | 89.1 | 100 |  |  | 466 | 66.3 | 8.8 | > 10 |  | 
CCN(CC)C(=O)c1ccc([C@H](c2cccc(N)c2)N2CCN(Cc3cccc(F)c3)CC2)cc1 | 2740 |  |  | 84.4 |  |  |  |  | 5.77 | 77.4 | 1.08
CCN(CC)C(=O)c1ccc([C@H](c2cccc(N)c2)N2CCN(Cc3ccccc3F)CC2)cc1 | 2260 |  |  | 90 |  |  |  |  | 7.26 | 48.1 | 0.717
